Among the data in patent US20230348468A1, “1H-PYRAZOLO[4,3-d]PYRIMIDINE COMPOUNDS AS TOLL-LIKE RECEPTOR 7 (TLR7) AGONISTS” (BRISTOL-MYERS SQUIBB COMPANY, priority 2020, published 2023) are EC50 values, retold here.

One assay deals with T1, human TLR7 (Homo sapiens, UniProt Q9NYK1).
T1 construct: host or cells: HEK-Blue TLR7 cells (engineered human embryonic kidney cells)
T1 sequence (Q9NYK1 27-1049): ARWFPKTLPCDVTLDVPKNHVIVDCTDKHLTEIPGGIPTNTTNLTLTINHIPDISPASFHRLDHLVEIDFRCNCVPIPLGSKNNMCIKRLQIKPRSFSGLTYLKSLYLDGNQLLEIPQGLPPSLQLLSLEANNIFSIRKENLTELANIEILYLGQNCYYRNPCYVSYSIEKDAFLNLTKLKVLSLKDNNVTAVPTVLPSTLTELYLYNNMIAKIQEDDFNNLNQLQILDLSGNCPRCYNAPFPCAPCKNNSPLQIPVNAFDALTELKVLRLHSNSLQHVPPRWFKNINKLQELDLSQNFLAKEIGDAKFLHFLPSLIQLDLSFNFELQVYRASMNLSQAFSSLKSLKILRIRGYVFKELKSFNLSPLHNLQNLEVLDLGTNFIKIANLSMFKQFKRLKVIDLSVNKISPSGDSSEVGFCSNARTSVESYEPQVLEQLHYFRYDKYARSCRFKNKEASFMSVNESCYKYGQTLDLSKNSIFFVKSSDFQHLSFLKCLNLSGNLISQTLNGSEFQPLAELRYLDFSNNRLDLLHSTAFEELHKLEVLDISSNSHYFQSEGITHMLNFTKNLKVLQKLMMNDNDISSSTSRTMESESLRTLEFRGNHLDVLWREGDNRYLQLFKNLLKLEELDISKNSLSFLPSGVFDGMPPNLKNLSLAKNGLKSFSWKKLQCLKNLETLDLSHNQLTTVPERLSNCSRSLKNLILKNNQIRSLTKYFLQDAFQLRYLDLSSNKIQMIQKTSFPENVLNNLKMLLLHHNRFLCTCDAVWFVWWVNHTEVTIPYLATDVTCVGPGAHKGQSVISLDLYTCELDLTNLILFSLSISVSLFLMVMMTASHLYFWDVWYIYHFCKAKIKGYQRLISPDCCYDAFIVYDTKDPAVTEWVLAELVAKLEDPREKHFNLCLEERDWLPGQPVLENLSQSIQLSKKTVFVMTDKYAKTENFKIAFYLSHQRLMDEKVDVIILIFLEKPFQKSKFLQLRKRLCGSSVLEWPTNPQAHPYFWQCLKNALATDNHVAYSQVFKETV
In words: Human TLR7 agonist activity (reporter) assay. The format is cell-based. To be noted: HEK-Blue TLR7 cells, SEAP reporter, 18 h treatment; average where assay performed multiple times; read-out: hTLR7 Agonism EC50. Here is the method: This procedure describes a method for assaying human TLR7 (hTLR7) agonist activity of the compounds disclosed in this specification.
HEK-Blue™ TLR7 cells were added to each well of a 384-well tissue-culture plate (15,000 cells per well) and incubated 16-18 h at 37° C., 5% CO2. Compounds (100 nl) were dispensed into wells containing the HEK-Blue™ TLR cells and the treated cells were incubated at 37° C., 5% CO2. After 18 h treatment ten microliters of freshly-prepared Quanti-Blue” reagent (Invivogen) was added to each well, incubated for 30 min (37° C., 5% CO2) and SEAP levels measured using an Envision plate reader (OD=620 nm). The half maximal effective concentration values (EC50; compound concentration which induced a response halfway between the assay baseline and maximum) were calculated.

The next assay relates to CD69. Put plainly: Induction of CD69 in human whole blood. The conditions noted are these: heparinized human whole blood, 17 hrs at 37° C.; 100% set to 1 uM resiquimod; average where assay performed multiple times; read-out: hWB CD69 EC50. The format is cell-based. How it is done:
The induction of Type I interferon (IFN) MX-1 genes and the B-cell activation marker CD69 are downstream events that occur upon activation of the TLR7 pathway. The following is a human whole blood assay that measures their induction in response to a TLR7 agonist.
Heparinized human whole blood was harvested from human subjects and treated with test TLR7 agonist compounds at 1 mM. The blood was diluted with RPMI 1640 media and Echo was used to predot 10 nL per well giving a final concentration of 1 uM (10 nL in 10 uL of blood). After mixing on a shaker for 30 sec, the plates were covered and placed in a 37° C. chamber for o/n=17 hrs. Fixing/lysis buffer was prepared (5×→1× in H2O, warm at 37° C.; Cat #BD 558049) and kept the perm buffer (on ice) for later use.
For surface markers staining (CD69): prepared surface Abs: 0.045 ul hCD14-FITC (ThermoFisher Cat #MHCD1401)+0.6 ul hCD19-ef450 (ThermoFisher Cat #48-0198-42)+1.5 ul hCD69-PE (cat #BD555531)+0.855 ul FACS buffer. Added 3 ul/well, spin 1000 rpm for 1 min and mixed on shaker for 30 sec, put on ice for 30 mins. Stop stimulation after 30 min with 70 uL of prewarmed 1× fix/lysis buffer and use Feliex mate to resuspend (15 times, change tips for each plate) and incubate at 37 C for 10 min.
Centrifuge at 2000 rpm for 5 min aspirate with HCS plate washer, mix on shaker for 30 sec and then wash with 70 uL in dPBS and pelleted 2×s (2000 rpm for 5 min) and 50 ul wash in FACS buffer pelleted 1×s (2000 rpm for 5 min). Mix on shaker for 30 sec. For Intracellular markers staining (MX-1): Add 50 ul of BD Perm buffer III and mix on shaker for 30 sec. Incubate on ice for 30 min (in the dark). Wash with 50 uL of FACS buffer 2× (spin @2300 rpm×5 min after perm) followed by mixing on shaker for 30 sec. Resuspended in 20 ul of FACS buffer containing MX1 antibody ( )(4812)-Alexa 647: Novus Biologicals #NBP2-43704AF647) 20 ul FACS bf+0.8 ul hIgG+0.04 ul MX-1. Spin 1000 rpm for 1 min, mix on shaker for 30 se and the samples were incubated at RT in the dark for 45 min followed by washing 2×FACS buffer (spin @2300 rpm×5 min after perm). Resuspend 20 ul (35 uL total per well) of FACS buffer and cover with foil and place in 4° C. to read the following day. Plates were read on iQuePlus. The results were loaded into toolset and […] curves are generated in curve master. The y-axis 100% is set to 1 uM of resiquimod.

For the compound `CC[C@@H](CCO)Nc1nc(N)nc2cnn(Cc3ccc(C(C)(C)N)cc3OC)c12` [Compound 106, (S)-3-((5-amino-1-(4-(2-aminopropan-2-yl)-2-methoxybenzyl)-1H-pyrazolo[4,3-d]pyrimidin-7-yl)amino)pentan-1-ol], the EC50 (in general, the concentration needed to bring the measured effect to its halfway point) on human TLR7 amounted to 211 nM; with CD69 it was 3.7 nM.
